# Reference: US12568972B2, “Pyridazinol compounds and derivatives, preparation methods, herbicidal compositions and applications thereof” (Qingdao Kingagroot Chemical Compound Co., Ltd., priority 2018, dated 2026)
# Like-named read-outs stand apart in the source and are kept apart here.
# How the values were obtained:
# Type in all cases: in vivo
# [1] = tested on: weeds; experiment: Control effect and synergistic effect of the mixture of (i) and (ii), postemergence (Gowing method)
# Excerpt: Wherein, in the formula, X represented the fresh weight inhibition rate of the active ingredient A in a dosage of P, and Y represented the fresh weight inhibition rate of the active ingredient B in a dosage of Q. The statistic results are shown in Table 6.
# [2] = tested on: Echinochloa crus-galli; experiment: Post-emergence test, weed control effect; settings: 504 h, Dose 300 g/ha, after 3 weeks, fresh weight inhibition, read-out: activity level of harmful plant destruction (growth inhibition rate), Echinochloa crus-galli
# Summary of the method: (§1)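 Weeds grown from seed in soil-filled pots in a greenhouse were sprayed at the 2-3 leaf stage, 2-3 weeks after sowing, with compound in acetone/Tween-80/water plus 80% vegetable oil methyl ester synergist at 1500 g/ha. Fresh-weight inhibition was scored on a 0-10 scale after 3 weeks.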
# [3] = tested on: Setaria viridis; experiment: Post-emergence test, weed control effect; settings: 504 h, Dose 300 g/ha, after 3 weeks, fresh weight inhibition, read-out: activity level of harmful plant destruction (growth inhibition rate), Setaria viridis
# Summary of the method: as §1
# [4] = tested on: Rorippa indica; experiment: Post-emergence test, weed control effect; settings: after 3 weeks; for inhibition at 300 g/ha: Rorippa indica, 504 h, fresh weight inhibition, read-out: activity level of harmful plant destruction (growth inhibition rate), Rorippa indica
# Summary of the method: as §1
# [5] = tested on: Chenopodiaceae; experiment: Post-emergence test, weed control effect; settings: after 3 weeks; for inhibition at 300 g/ha: 504 h, fresh weight inhibition, read-out: activity level of harmful plant destruction (growth inhibition rate), Chenopodiaceae
# Summary of the method: as §1
# [6] = tested on: Veronica polita; experiment: Post-emergence test, weed control effect; settings: after 3 weeks; for inhibition at 300 g/ha: Veronica polita, 504 h, fresh weight inhibition, read-out: activity level of harmful plant destruction (growth inhibition rate), Veronica polita
# Summary of the method: as §1
# [7] = tested on: Galium aparine; experiment: Post-emergence test, weed control effect; settings: 504 h, Dose 300 g/ha, after 3 weeks, fresh weight inhibition, read-out: activity level of harmful plant destruction (growth inhibition rate), Galium aparine
# Summary of the method: as §1
# [8] = tested on: Amaranthus retroflexus; experiment: Post-emergence test, weed control effect; settings: after 3 weeks
# Summary of the method: as §1
# [9] = Abutilon theophrasti, 2 g a.i./ha, postemergence, 20 days after treatment
# [10] = Sisymbrium sophia, 200 g a.i./ha, postemergence, 20 days after treatment
# [11] = post-emergence, 480 h, Abutilon theophrasti, 50 g a.i./ha, postemergence, 20 days after treatment, read-out: Inhibitory effect of component (ii) when applied alone at same dose
# [12] = Abutilon theophrasti, 5 g a.i./ha, postemergence, 20 days after treatment
# [13] = post-emergence, 480 h, Abutilon theophrasti, 30 g a.i./ha, postemergence, 20 days after treatment, read-out: Inhibitory effect of component (ii) when applied alone at same dose
# [14] = Abutilon theophrasti, 50 g a.i./ha, postemergence, 20 days after treatment
# [15] = Abutilon theophrasti, 15 g a.i./ha, postemergence, 20 days after treatment
# [16] = Abutilon theophrasti, 30 g a.i./ha, postemergence, 20 days after treatment
compound,measurement,setting,value
COc1c(Cl)ccc(-c2nc(C(=O)OCc3ccccc3)c(Cl)c(N)c2F)c1F [Florpyrauxifen-benzyl],Inhibitory effect of component (ii) when applied alone at same dose,[1]; [9],45%
"O=C(O)CCCOc1ccc(Cl)cc1Cl [2,4-DB]",Inhibitory effect of component (ii) when applied alone at same dose,[1]; [10],50%
CCC(Oc1ccc(F)c(C(F)(F)F)c1)C(=O)NCc1ccccc1 (stereo not shown) [Beflubutamid],Inhibitory effect of component (ii) when applied alone at same dose,"[1]; Abutilon theophrasti, 200 g a.i./ha, postemergence, 20 days after treatment",40%
Nc1c(Cl)c(Cl)nc(C(=O)O)c1Cl [Picloram],pest or weed control at 50 g/ha,[1]; [11],40%
Cc1c(C(=O)c2cnn(C)c2O)ccc(S(C)(=O)=O)c1C1=NOCC1 [Topramezone],Inhibitory effect of component (ii) when applied alone at same dose,[1]; [12],40%
CS(=O)(=O)c1cc(C(F)(F)F)ccc1C(=O)c1cnoc1C1CC1 [Isoxaflutole],pest or weed control at 30 g/ha,[1]; [13],30%
CNc1cnn(-c2cccc(C(F)(F)F)c2)c(=O)c1Cl [Norflurazon],pest or weed control at 300 g/ha,"[1]; post-emergence, 480 h, Abutilon theophrasti, 300 g a.i./ha, postemergence, 20 days after treatment, read-out: Inhibitory effect of component (ii) when applied alone at same dose",50%
CS(=O)(=O)c1ccc(C(=O)C2C(=O)CCCC2=O)c(Cl)c1COCC1CCCO1 (stereo not shown) [Tefuryltrione],Inhibitory effect of component (ii) when applied alone at same dose,[1]; [14],40%
CS(=O)(=O)c1ccc(C(=O)C2C(=O)CCCC2=O)c(Cl)c1OCCC1OCCO1 [Lancotrione],Inhibitory effect of component (ii) when applied alone at same dose,[1]; [14],40%
Cc1ccc(C(=O)COc2c(C(=O)c3ccc(Cl)c(C)c3Cl)c(C)nn2C)cc1 [Benzofenap],pest or weed control at 150 g/ha,"[1]; post-emergence, 480 h, Abutilon theophrasti, 150 g a.i./ha, postemergence, 20 days after treatment, read-out: Inhibitory effect of component (ii) when applied alone at same dose",40%
O=C(O)COc1nc(Cl)c(Cl)cc1Cl [Triclopyr],pest or weed control at 50 g/ha,[1]; [11],35%
O=C(O)COc1nc(Cl)c(Cl)cc1Cl [Trichlopyr],Inhibitory effect of component (ii) when applied alone at same dose,[1]; [14],40%
"CCCCCCCCSC(=O)Oc1cc(Cl)nnc1-c1ccccc1 [B, reference compound]",inhibition at 300 g/ha,[2],0%
same,inhibition at 300 g/ha,[3],30 to 40%
same,inhibition at 300 g/ha,[4],30 to 40%
same,inhibition at 300 g/ha,[5],30 to 40%
same,inhibition at 300 g/ha,[6],30 to 40%
same,inhibition at 300 g/ha,[7],40 to 50%
CCn1ncc(C(=O)c2ccc(S(C)(=O)=O)c(OCCOC)c2C)c1OC(C)OC(=O)OC (stereo not shown) [Tolpyralate],Inhibitory effect of component (ii) when applied alone at same dose,[1]; [12],50%
Oc1cc(C(F)(F)F)nnc1C1=CCCCC1 [Compound 1524],inhibition at 300 g/ha,[3],100%
same,"weed control effect (activity level), Amaranthus retroflexus",[8]; Dose 3000 g/ha,10
same,"weed control effect (activity level), Rorippa indica",[4]; Dose 3000 g/ha,10
same,inhibition at 300 g/ha,[4],100%
same,inhibition at 300 g/ha,[5],100%
same,"weed control effect (activity level), Chenopodiaceae",[5]; Dose 3000 g/ha,10
same,"weed control effect (activity level), Veronica polita",[6]; Dose 3000 g/ha,10
same,inhibition at 300 g/ha,[6],90 to 100%
same,inhibition at 300 g/ha,[7],90 to 100%
Fluridone,Inhibitory effect of component (ii) when applied alone at same dose,"[1]; Abutilon theophrasti, 100 g a.i./ha, postemergence, 20 days after treatment",45%
COc1c(Cl)ccc(Cl)c1C(=O)O [Dicamba],pest or weed control at 10 g/ha,"[1]; Descurainia sophia, post-emergence, 480 h, Sisymbrium sophia, 10 g a.i./ha, postemergence, 20 days after treatment, read-out: Inhibitory effect of component (ii) when applied alone at same dose",30%
Cc1cc(Cl)ccc1OC(C)C(=O)O (stereo not shown) [2-methyl 4-chlorophenoxypropionic acid],Inhibitory effect of component (ii) when applied alone at same dose,"[1]; Sisymbrium sophia, 100 g a.i./ha, postemergence, 20 days after treatment",30%
CS(=O)(=O)c1ccc(C(=O)C2C(=O)CCCC2=O)c(Cl)c1 [Sulcotrione],pest or weed control at 50 g/ha,"[1]; Abutilon theophrasti, post-emergence, 480 h, read-out: Inhibitory effect of component (ii) when applied alone at same dose",30%
O=C(O)c1nc(Cl)ccc1Cl [Clopyralid],pest or weed control at 50 g/ha,"[1]; post-emergence, 480 h, Galinsoga parviflora, 50 g a.i./ha, postemergence, 20 days after treatment, read-out: Inhibitory effect of component (ii) when applied alone at same dose",40%
O=C(Nc1ccc(F)cc1F)c1cccnc1Oc1cccc(C(F)(F)F)c1 [Diflufenican],pest or weed control at 100 g/ha,"[1]; post-emergence, 480 h, Veronica polita, 100 g a.i./ha, postemergence, 20 days after treatment, read-out: Inhibitory effect of component (ii) when applied alone at same dose",45%
CS(=O)(=O)c1ccc(C(=O)C2C(=O)CCCC2=O)c([N+](=O)[O-])c1 [Mesotrione],pest or weed control at 30 g/ha,[1]; [13],40%
CS(=O)(=O)c1ccc(C(=O)C2=C(Sc3ccccc3)C3CCC(C3)C2=O)c(Cl)c1 (stereo not shown) [Benzobicyclon],Inhibitory effect of component (ii) when applied alone at same dose,"[1]; Abutilon theophrasti, 150 g a.i./ha, postemergence, 20 days after treatment",50%
O=C1C(Cl)C(CCl)CN1c1cccc(C(F)(F)F)c1 (stereo not shown) [Flurochloridone],pest or weed control at 100 g/ha,"[1]; post-emergence, 480 h, Galium aparine, 100 g a.i./ha, postemergence, 20 days after treatment, read-out: Inhibitory effect of component (ii) when applied alone at same dose",40%
CC(Oc1ccc(Cl)cc1Cl)C(=O)O (stereo not shown) [Dichlorprop],pest or weed control at 100 g/ha,"[1]; Descurainia sophia, post-emergence, 480 h, Sisymbrium sophia, 100 g a.i./ha, postemergence, 20 days after treatment, read-out: Inhibitory effect of component (ii) when applied alone at same dose",40%
O=C(O)c1c(Cl)ccc2cc(Cl)cnc12 [Quinclorac],pest or weed control at 50 g/ha,"[1]; post-emergence, 480 h, Galium aparine, 50 g a.i./ha, postemergence, 20 days after treatment, read-out: Inhibitory effect of component (ii) when applied alone at same dose",50%
Cc1nn(C)c(O)c1C(=O)c1ccc(C(F)(F)F)cc1S(C)(=O)=O [Pyrasulfotole],Inhibitory effect of component (ii) when applied alone at same dose,[1]; [15],50%
CCn1ncc(C(=O)c2ccc(S(C)(=O)=O)c(COCC(F)(F)F)c2Cl)c1OC(=O)c1cn(C)nc1C [Benzuofucaotong],Inhibitory effect of component (ii) when applied alone at same dose,[1]; [15],40%
Cc1cc(Cl)ccc1OCCCC(=O)O [MCPB],Inhibitory effect of component (ii) when applied alone at same dose,[1]; [10],40%
CNC1=C(c2cccc(C(F)(F)F)c2)C(=O)C(c2ccccc2)O1 (stereo not shown) [Flurtamone],pest or weed control at 100 g/ha,"[1]; Galium aparine, post-emergence, 480 h, read-out: Inhibitory effect of component (ii) when applied alone at same dose",35%
Cc1nn(C)cc1C(=O)Oc1c(C(=O)c2ccc(C(F)(F)F)cc2S(C)(=O)=O)c(C)nn1C [Shuangzuocaotong],Inhibitory effect of component (ii) when applied alone at same dose,"[1]; Sisymbrium sophia, 5 g a.i./ha, postemergence, 20 days after treatment",40%
Cn1[nH]c(C2CC2)c(C(=O)c2ccc(C(F)(F)F)c(N3CCCCC3=O)c2Cl)c1=O [Huanbifucaotong],Inhibitory effect of component (ii) when applied alone at same dose,[1]; [16],30%
COC(=O)c1nc(-c2ccc(Cl)c(OC)c2F)cc(N)c1Cl [Halauxifen-methyl],Inhibitory effect of component (ii) when applied alone at same dose,[1]; [9],40%
CS(=O)(=O)c1ccc(C(=O)C2C(=O)CCCC2=O)c(Cl)c1COCC(F)(F)F [Tembotrione],pest or weed control at 15 g/ha,"[1]; post-emergence, 480 h, Abutilon theophrasti, 15 g a.i./ha, postemergence, 20 days after treatment, read-out: Inhibitory effect of component (ii) when applied alone at same dose",30%
Nc1c(Cl)c(F)nc(OCC(=O)O)c1Cl [Fluroxypyr],pest or weed control at 30 g/ha,"[1]; post-emergence, 480 h, Galium aparine, 30 g a.i./ha, postemergence, 20 days after treatment, read-out: Inhibitory effect of component (ii) when applied alone at same dose",40%
"CC(C)CCCCCOC(=O)COc1ccc(Cl)cc1Cl [2,4-D iso-octyl ester]",Inhibitory effect of component (ii) when applied alone at same dose,"[1]; Sisymbrium sophia, 50 g a.i./ha, postemergence, 20 days after treatment",40%
Oc1cc(C(F)(F)F)nnc1-c1ccccc1 [Compound 1],Inhibitory effect of component (i) when applied alone at same dose,[1]; [16],20
same,Inhibitory effect of component (i) when applied alone at same dose,"[1]; Galinsoga parviflora, 30 g a.i./ha, postemergence, 20 days after treatment",30
same,Inhibitory effect of component (i) when applied alone at same dose,"[1]; Galium aparine, 30 g a.i./ha, postemergence, 20 days after treatment",20
same,Inhibitory effect of component (i) when applied alone at same dose,"[1]; Sisymbrium sophia, 30 g a.i./ha, postemergence, 20 days after treatment",20
same,Inhibitory effect of component (i) when applied alone at same dose,"[1]; Veronica polita, 30 g a.i./ha, postemergence, 20 days after treatment",30
same,"weed control effect (activity level), Amaranthus retroflexus",[8]; dose 2000 g/ha,10
same,"weed control effect (activity level), Rorippa indica",[4]; dose 2000 g/ha,10
same,"weed control effect (activity level), Chenopodiaceae",[5]; dose 2000 g/ha,8 (Level 8: above 80% growth inhibition rate)
same,"weed control effect (activity level), Veronica polita",[6]; dose 2000 g/ha,10
Oc1cc(C(F)(F)F)nnc1-c1cnc(Cl)c(Cl)c1 [Compound 994],"weed control effect (activity level), Amaranthus retroflexus",[8]; Dose 3000 g/ha,10
same,"weed control effect (activity level), Rorippa indica",[4]; Dose 3000 g/ha,10
same,"weed control effect (activity level), Chenopodiaceae",[5]; Dose 3000 g/ha,10
same,"weed control effect (activity level), Veronica polita",[6]; Dose 3000 g/ha,10
Oc1cc(C(F)(F)F)nnc1-c1cc2ccccc2o1 [Compound 613],"weed control effect (activity level), Amaranthus retroflexus",[8]; Dose 3000 g/ha,10
same,"weed control effect (activity level), Rorippa indica",[4]; Dose 3000 g/ha,10
same,"weed control effect (activity level), Chenopodiaceae",[5]; Dose 3000 g/ha,10
same,"weed control effect (activity level), Veronica polita",[6]; Dose 3000 g/ha,10
O=C(Nc1ccc(F)cc1)c1cccc(Oc2cccc(C(F)(F)F)c2)n1 [Picolinafen],Inhibitory effect of component (ii) when applied alone at same dose,[1]; [14],30%
